Series [1] in a line: Qualitative solubility/crystallisation tests in solvents (15 mg scale). It counts as physicochemical.
The conditions of series [2]: female, human, in vivo, 20 h.
Procedure: Twelve healthy Caucasian women aged 54-62 years (mean 58.3 years), with a weight of 51 to 67 kg (mean 60.6 kg±5.1) and a body mass index ranging between 19.4-25.5 kg/m2 (mean 23.12 kg/m2±2.05) were enrolled. They were administered, on three separate treatment periods of one week, either two consecutive (3Z,5S) doses of 600 mg/day (administered to subjects using 3 dispersible tablets of 200 mg in 150 ml of water) or two intramuscular injections of 12 mg/day betamethasone or both drugs in combination.
Therefore, pharmacokinetic parameters of the treatment with (3Z,5S) dispersible tablets were calculated for 12 subjects, whereas pharmacokinetic parameters of the combination treatment were assessed for 11 participants.
During each treatment period of one week, blood samples were collected for the analysis of (3Z,5S) and betamethasone at time points 0 (pre-dose) and at 0.25, 0.5, 0.75, 1, 1.5, 2, 3, 4, 6, 8, 10, 12, 16, 20 and 24 hours after first dose on day 1. The plasma was prepared and stored below −20° C. All samples were analysed using validated LC-MS/MS methods. For the analysis of (3Z,5S), the lower limit of quantification was 1.0 ng/ml. For betamethasone analyses, the lower limit of quantification was 0.5 ng/ml.
Pharmacokinetic parameters were estimated by non-compartmental methods using the Phoenix® WinNonLin® version 6.3 (Pharsight). […]

Turning to `CO/N=C1/C[C@@H](CO)N(C(=O)c2ccc(-c3ccccc3C)cc2)C1` [(3Z,5S), (3Z,5S)-5-(hydroxymethyl)-1-[(2′-methyl-1,1′-biphenyl-4-yl)carbonyl]pyrrolidin-3-one-O-methyloxime], the “Qualitative solubility, Dissolves in” value in series [1] (solvent DIPE) is 40 vol hot; in series [1] (solvent IPA), 4 vol hot; in series [1] (solvent MIBK), 4 vol hot; in series [1] (solvent THF), 4 vol cold; in series [1] (solvent tBuOH) it was 6 vol hot; in series [1] (solvent toluene), 2 vol cold. Further, in series [1] (solvent heptanes), the “Qualitative solubility, Dissolves in / Comment” value is on record as “insoluble in 20 vol”. The “% of Cmax” value in series [2] is recorded as 25%.

The record behind these values is patent US20170065556A1, “ORAL FORMULATIONS OF PYRROLIDINE DERIVATIVES” (OBSEVA S.A., priority 2013, published 2017).
